Patent US8324223B2, “Substituted thieno [2,3-d] pyrimidines as HIV inhibitors” (priority 2006, dated 2012)

Tests used:
Test in all cases: microbe, parasite or virus in culture
Format in all cases: cell-based, human immunodeficiency virus type 1 (HIV-1)
HIV-1 L100I-K103N = conditions: Human immunodeficiency virus 1, HeLa, read-out: EC50 L100I-K103N (nM)
wild type HIV-1 = conditions: Human immunodeficiency virus 1, Hela-JC53, read-out: EC50 WT (nM)
HIV-1 Y181C = conditions: Human immunodeficiency virus 1, HeLa, read-out: EC50 Y181C (nM)
HIV-1 Y188L = conditions: Human immunodeficiency virus 1, HeLa, read-out: EC50 Y188L (nM)

| Structure (SMILES) | EC50 (HIV-1 L100I-K103N) [nM] | EC50 (wild type HIV-1) [nM] | EC50 (HIV-1 Y181C) [nM] | EC50 (HIV-1 Y188L) [nM] |
| --- | --- | --- | --- | --- |
| Cc1cc(C)c(Oc2nc(Nc3ccc(C#N)cc3)nc3ccsc23)c(C)c1 [Cpd 1] | 10 to 100 | < 10 | < 10 | < 10 |
| Cc1cc(C)c(Nc2nc(Nc3ccc(C#N)cc3)nc3ccsc23)c(C)c1 [Cpd 2] | > 100 | < 10 | 10 to 100 | > 100 |
| Cc1cc(C#N)cc(C)c1Oc1nc(Nc2ccc(C#N)cc2)nc2ccsc12 [Cpd 3] | < 10 | < 10 | 10 to 100 | < 10 |
| Cc1cc(C)c(Oc2nc(Nc3ccc(C#N)cc3)nc3sccc23)c(C)c1 [Cpd 4] | 10 to 100 | < 10 | 10 to 100 | 10 to 100 |
| Cc1cc(C)c(Oc2nc(Nc3ccc(C#N)cc3)nc3sc4c(c23)CCCC4)c(C)c1 [Cpd 5] | > 100 | 10 to 100 | > 100 | > 100 |
| Cc1cc(C)c(Oc2nc(Nc3ccc(C#N)cc3)nc3c(C)csc23)c(C)c1 [Cpd 6] | 10 to 100 | 10 to 100 | 10 to 100 | 10 to 100 |
| Cc1cc(C#N)cc(C)c1Oc1nc(Nc2ccc(C#N)cc2)nc2sccc12 [Cpd 7] | 10 to 100 | < 10 | < 10 | < 10 |
| Cc1cc(C)c(Nc2nc(Nc3ccc(C#N)cc3)nc3c(C)csc23)c(C)c1 [Cpd 8] | – | < 10 | 10 to 100 | 10 to 100 |
| Cc1cc(C#N)cc(C)c1Oc1nc(Nc2ccc(C#N)cc2)nc2c(C)csc12 [Cpd 9] | < 10 | < 10 | < 10 | < 10 |
